We go through 14 compounds from PMC9865825, “Synthesis and Antiparasitic Activity of New Trithiolato-Bridged Dinuclear Ruthenium(II)-arene-carbohydrate Conjugates” (Molecules, 2023).

pIC50: −log10 of the molar value. Read-outs that look alike come from different tables or passages of the source.

Data set [1] deals with human foreskin fibroblasts (HFF). Also on record: method as in PMID 34144354, PMID 32347622, doi:10.3390/inorganics9080059, PMID 36500266. The note with it: cited from earlier work; for HFF Viability (%): non-infected HFF, vs 0.1% DMSO control = 100%; for HFF Viability at 2.5 µM (%): control 0.25% DMSO = 100%.
Data set [2] relates to T. gondii β-gal tachyzoites. Also on record: method as in PMID 34144354, PMID 32347622, doi:10.3390/inorganics9080059, PMID 36500266. Conditions: cited from earlier work; for T. Gondii β-gal Growth (%): tachyzoites in HFF, vs 0.1% DMSO control = 100%.
Data set [3] has as its system T. gondii β-gal tachyzoites. Nature of the data set: In vitro proliferation of T. gondii β-gal tachyzoites in HFF, β-galactosidase colorimetric test (primary screening and IC50). It is filed as cell-based, Toxoplasma gondii. The note with it: for T. Gondii β-gal Growth (%): 72 h, tachyzoites in HFF, vs 0.1% DMSO control = 100%; for pIC50: eight serial concentrations 7 nM to 1 µM. How it is done:
In a primary screening, each compound was evaluated at two concentrations 0.1 and 1 µM and added to the media prior to the infection as previously described. Control non-infected non-treated HFF cultures and T. gondii β-gal infected but not-treated cultures were cultivated in complete medium containing 0.01 or 0.1% DMSO. The 96-well plates were incubated for 72 h at 37 °C/5% CO2 as previously described.
For the IC50 determination on T. gondii β-gal, eight serial concentrations ranging from 7 nM to 1 μM were tested for each selected compound as previously described and the β-galactosidase assay was performed as reported. Briefly, infected HFF cultures in 96-well plates were lysed with PBS containing 0.05% Triton X-100. Then the substrate chlorophenolred-β-D-galactopyranoside (CPRG; Roche Diagnostics, Rotkreuz, Switzerland) was added in a final concentration of 0.5 mM. Absorption was measured at 570 nm wavelength using an EnSpire® multimode plate reader (PerkinElmer, Inc., Waltham, MA, USA).

The subject of data set [4] is human foreskin fibroblasts (HFF). The data set can be described thus: in vitro. As for the experimental part: The viability of treated HFF was measured by the alamarBlue metabolic assay, and the proliferation of T. gondii β-gal was quantified by the β-galactosidase colorimetric test. In both cases, results are expressed as percentage (%) compared to control parasitic and host cells treated with 0.1% DMSO for which proliferation and viability were set to 100% (Table 1).
All tissue culture media were purchased from Gibco-BRL, and biochemical agents from Sigma-Aldrich. […] Transgenic T. gondii β-gal tachyzoites (expressing the β-galactosidase gene from Escherichia coli) from RH strain were kindly provided by Prof.
The screening sequence for the compounds was described in previous reports. All compounds were prepared as 1 mM stock solutions from powder in dimethyl sulfoxide (DMSO, Sigma, St. Louis, MO, USA). For in vitro activity and cytotoxicity assays, HFF were seeded at 5 × 10^3/well in 96 well plates and allowed to grow to confluence in complete culture medium at 37 °C and 5% CO2.
All calculations were performed using the corresponding software tool contained in the Excel software package (Microsoft, Redmond, WA, USA). […] Then the medium was removed, the plates were washed once with PBS and 200 μL of resazurin (1:200 dilution in PBS) were added to each well. […] Fluorescence was measured at two different time points: T0 as starting timepoint and T5h as at 5 h later. Relative fluorescence units were calculated from time points with linear increases.

Data set [5] is described as follows: Stability in DMSO-d6 followed by 1H NMR. Conditions: 25 °C, 5 min and more than 1 month after sample preparation.

The term pIC50 denotes the negative decadic logarithm of the IC50, by convention in mol/L. As to `CC(C)(C)c1ccc(C[S-])cc1.CC(C)(C)c1ccc(C[S-])cc1.Cc1ccc(C(C)C)cc1.Cc1ccc(C(C)C)cc1.Oc1ccc([S-])cc1.[Cl-].[Ru+2].[Ru+2]` [Compound 2], the entries for the “HFF Viability (%)” value in data set [1] (0.1 µM) and in data set [1] (1 µM) were 76 ± 6% and 46 ± 6%, respectively. For the same compound, in data set [1], the “HFF Viability at 2.5 µM (%)” value is given as 56%. The entries for the “T. Gondii β-gal Growth (%)” value in data set [2] (0.1 µM) and in data set [2] (1 µM) were 66 ± 14% and 2 ± 0%, respectively. The pIC50 in data set [2] was 6.93.
As for `CC(C)(C)c1ccc(C[S+]2[Ru-]3[S+](Cc4ccc(C(C)(C)C)cc4)[Ru-]2[S+]3c2ccc(N)cc2)cc1.Cc1ccc(C(C)C)cc1.Cc1ccc(C(C)C)cc1.[Cl-]` (centres unmarked) [Compound 3], the “HFF Viability (%)” value in data set [1] (0.1 µM) was 74 ± 2%; in data set [1] (1 µM) it was 48 ± 1%. The “HFF Viability at 2.5 µM (%)” value in data set [1] was 51%. The “T. Gondii β-gal Growth (%)” value is 57 ± 1% in data set [2] (0.1 µM) and 2 ± 0% in data set [2] (1 µM). Besides, the pIC50 in data set [2] is 6.82.
Take `CC(C)(C)c1ccc(C[S-])cc1.CC(C)(C)c1ccc(C[S-])cc1.Cc1ccc(C(C)C)cc1.Cc1ccc(C(C)C)cc1.O=C(O)Cc1ccc([S-])cc1.[Cl-].[Ru+2].[Ru+2]` [Compound 4]: the “HFF Viability (%)” value is on record as 91 ± 4% in data set [1] (0.1 µM) and 73 ± 1% in data set [1] (1 µM). Moreover, the “T. Gondii β-gal Growth (%)” value in data set [2] (0.1 µM) was 114 ± 2%; in data set [2] (1 µM), 110 ± 2%.
For `CC(C)(C)c1ccc(C[S+]2[Ru-]3[S+](Cc4ccc(C(C)(C)C)cc4)[Ru-]2[S+]3c2ccccc2CO)cc1.Cc1ccc(C(C)C)cc1.Cc1ccc(C(C)C)cc1.[Cl-]` (centres unmarked) [Compound 5], the “HFF Viability (%)” value in data set [1] (0.1 µM) is reported as 80 ± 1%; in data set [1] (1 µM), 69 ± 6%. Also, the “HFF Viability at 2.5 µM (%)” value in data set [1] was 4%. Further, the “T. Gondii β-gal Growth (%)” value in data set [2] (0.1 µM) is reported as 2 ± 0%; in data set [2] (1 µM), 1 ± 0%. For the same compound, the pIC50 in data set [2] was 7.42.
As for `C#CCCCC(=O)Oc1ccc([S-])cc1.CC(C)(C)c1ccc(C[S-])cc1.CC(C)(C)c1ccc(C[S-])cc1.Cc1ccc(C(C)C)cc1.Cc1ccc(C(C)C)cc1.[Cl-].[Ru+2].[Ru+2]` [Compound 6], the “T. Gondii β-gal Growth (%)” value in data set [3] (0.1 µM) amounted to 4 ± 0%; in data set [3] (1 µM) it was 0 ± 0%. The compound further showed a pIC50 in data set [3] of 7.64.
For `C#CCCCC(=O)Nc1ccc([S+]2[Ru-]3[S+](Cc4ccc(C(C)(C)C)cc4)[Ru-]2[S+]3Cc2ccc(C(C)(C)C)cc2)cc1.Cc1ccc(C(C)C)cc1.Cc1ccc(C(C)C)cc1.[Cl-]` (centres unmarked) [Compound 7], the entries for the “T. Gondii β-gal Growth (%)” value in data set [2] (0.1 µM) and in data set [2] (1 µM) were 21 ± 2% and 0 ± 0%, respectively. The pIC50 in data set [2] was 7.42.
Consider `C#CCNC(=O)Cc1ccc([S-])cc1.CC(C)(C)c1ccc(C[S-])cc1.CC(C)(C)c1ccc(C[S-])cc1.Cc1ccc(C(C)C)cc1.Cc1ccc(C(C)C)cc1.[Cl-].[Ru+2].[Ru+2]` [Compound 8], for which the entries for the “HFF Viability (%)” value in data set [1] (0.1 µM) and in data set [1] (1 µM) were 71 ± 2% and 46 ± 6%, respectively. Also, the “T. Gondii β-gal Growth (%)” value in data set [2] (0.1 µM) was 52 ± 13%; in data set [2] (1 µM), 3 ± 1%.
As to `CC(C)(C)c1ccc(C[S+]2[Ru-]3[S+](Cc4ccc(C(C)(C)C)cc4)[Ru-]2[S+]3c2ccccc2CN=[N+]=[N-])cc1.Cc1ccc(C(C)C)cc1.Cc1ccc(C(C)C)cc1.[Cl-]` (centres unmarked) [Compound 9], the entries for the “HFF Viability (%)” value in data set [1] (0.1 µM) and in data set [1] (1 µM) were 96 ± 1% and 64 ± 1%, respectively. Moreover, in data set [1], the “HFF Viability at 2.5 µM (%)” value was 11%. In addition, the results for the “T. Gondii β-gal Growth (%)” value in data set [2] (0.1 µM) and in data set [2] (1 µM) were 9 ± 1% and 1 ± 1%, respectively. Besides, the pIC50 in data set [2] is 7.32.
Regarding `CC(=O)OC[C@H]1O[C@@H](n2cc(CCCC(=O)Oc3ccc([S-])cc3)nn2)[C@H](OC(C)=O)[C@@H](OC(C)=O)[C@@H]1OC(C)=O.CC(C)(C)c1ccc(C[S-])cc1.CC(C)(C)c1ccc(C[S-])cc1.Cc1ccc(C(C)C)cc1.Cc1ccc(C(C)C)cc1.[Cl-].[Ru+2].[Ru+2]` [Compound 19], the “HFF Viability (%)” value in data set [4] (0.1 µM) is on record as 102 ± 1%; in data set [4] (1 µM), 97 ± 1%. For the same compound, the “HFF Viability at 2.5 µM (%)” value in data set [4] is 29%. The “T. Gondii β-gal Growth (%)” value in data set [3] (0.1 µM) came out at 9 ± 1%; in data set [3] (1 µM), 0 ± 0%. Besides, the pIC50 in data set [3] was 7.74.
In the case of `CC(=O)OC[C@H]1O[C@@H](n2cc(CCCC(=O)Nc3ccc([S-])cc3)nn2)[C@H](OC(C)=O)[C@@H](OC(C)=O)[C@@H]1OC(C)=O.CC(C)(C)c1ccc(C[S-])cc1.CC(C)(C)c1ccc(C[S-])cc1.Cc1ccc(C(C)C)cc1.Cc1ccc(C(C)C)cc1.[Cl-].[Ru+2].[Ru+2]` [Compound 20], the “HFF Viability (%)” value was 98 ± 1% in data set [4] (0.1 µM) and 99 ± 0% in data set [4] (1 µM). Also, the “HFF Viability at 2.5 µM (%)” value in data set [4] is recorded as 77%. For the same compound, the “T. Gondii β-gal Growth (%)” value is recorded as 100 ± 1% in data set [3] (0.1 µM) and 1 ± 2% in data set [3] (1 µM). The compound further showed a pIC50 in data set [3] of 6.96. The “Stability in DMSO-d6 (1H NMR spectra)” value in data set [5] is given as “no significant modifications”.
Turning to `CC(=O)OC[C@H]1O[C@@H](OCCn2cc(CCCC(=O)Nc3ccc([S-])cc3)nn2)[C@H](OC(C)=O)[C@@H](OC(C)=O)[C@@H]1OC(C)=O.CC(C)(C)c1ccc(C[S-])cc1.CC(C)(C)c1ccc(C[S-])cc1.Cc1ccc(C(C)C)cc1.Cc1ccc(C(C)C)cc1.[Cl-].[Ru+2].[Ru+2]` [Compound 21], the “HFF Viability (%)” value in data set [4] (0.1 µM) is recorded as 100 ± 1%; in data set [4] (1 µM), 101 ± 0%. The “T. Gondii β-gal Growth (%)” value in data set [3] (0.1 µM) amounted to 87 ± 1%; in data set [3] (1 µM), 1 ± 0%. Moreover, the pIC50 in data set [3] is 7.06.
In the case of `CC(=O)OC[C@H]1O[C@@H](OCCn2cc(CCCC(=O)Nc3ccc([S-])cc3)nn2)[C@H](OC(C)=O)[C@@H](OC(C)=O)[C@H]1OC(C)=O.CC(C)(C)c1ccc(C[S-])cc1.CC(C)(C)c1ccc(C[S-])cc1.Cc1ccc(C(C)C)cc1.Cc1ccc(C(C)C)cc1.[Cl-].[Ru+2].[Ru+2]` [Compound 22], the entries for the “HFF Viability (%)” value in data set [4] (0.1 µM) and in data set [4] (1 µM) were 100 ± 0% and 101 ± 0%, respectively. Also, the “HFF Viability at 2.5 µM (%)” value in data set [4] was found to be 73%. Besides, the “T. Gondii β-gal Growth (%)” value in data set [3] (0.1 µM) is reported as 73 ± 1%; in data set [3] (1 µM), 2 ± 0%. For the same compound, in data set [3], the pIC50 is 6.53. The “Stability in DMSO-d6 (1H NMR spectra)” value in data set [5] was “no significant modifications”.
For `CC(=O)OC[C@H]1O[C@@H](OCCCn2cc(CCCC(=O)Nc3ccc([S-])cc3)nn2)[C@H](OC(C)=O)[C@@H](OC(C)=O)[C@H]1OC(C)=O.CC(C)(C)c1ccc(C[S-])cc1.CC(C)(C)c1ccc(C[S-])cc1.Cc1ccc(C(C)C)cc1.Cc1ccc(C(C)C)cc1.[Cl-].[Ru+2].[Ru+2]` [Compound 23], the “HFF Viability (%)” value in data set [4] (0.1 µM) amounted to 99 ± 1%; in data set [4] (1 µM), 101 ± 1%. Moreover, the “HFF Viability at 2.5 µM (%)” value in data set [4] came to 92%. The “T. Gondii β-gal Growth (%)” value in data set [3] (0.1 µM) is listed as 85 ± 1%; in data set [3] (1 µM) it was 1 ± 0%. For the same compound, the “IC50 fold lower compared to pyrimethamine” value in data set [3] (T. gondii β-gal, pyrimethamine IC50 = 0.326 µM) amounted to 10 fold. The same compound showed a pIC50 in data set [3] of 7.49.
As for `CCc1nc(N)nc(N)c1-c1ccc(Cl)cc1` [Pyrimethamine, reference compound], the pIC50 in data set [2] was 6.49.
